Laboratory results reported in PMC9699089 (Pathogens, 2022).

How the values were obtained:
[1] = system: Plasmodium falciparum CQ-resistant strain W2; assay: In vitro antiplasmodial activity, SYBR Green I fluorescence-based method, strain W2; assay type: cell-based; settings: CQ-resistant strain W2, 48 h incubation, mean of three independent experiments, read-out: P. falciparum Strains IC50 Values W2
Procedure: (§1) The in vitro antiplasmodial activities were tested over concentrations ranging from 39 nM to 40 µM against culture-adapted Plasmodium falciparum reference strains 3D7 and W2. […] These two strains are obtained from the collection of the National Museum of Natural History (Paris, France). The parasites were cultivated in RPMI medium (Sigma Aldrich, Lyon, France) supplemented with 0.5% Albumax I (Life Technologies Corporation, Paisley, UK), hypoxanthine (Sigma Aldrich), and gentamicin (Sigma Aldrich) with human erythrocytes and were incubated at 37 °C in a candle jar, as described previously. The P. falciparum drug susceptibility test was carried out in 96-well flat bottom sterile plates in a final volume of 250 µL. After 48 h incubation period with the drugs, quantities of DNA in treated and control cultures of parasites in human erythrocytes were quantified using the SYBR Green I (Sigma Aldrich) fluorescence-based method. Briefly, after incubation, plates were frozen at -20 °C until use. Plates were then thawed for 2 h at room temperature, and 100 µL of each homogenized culture was transferred to a well of a 96-well flat bottom sterile black plate (Nunc, Inc.) that contained 100 µL of the SYBR Green I lysis buffer (2xSYBR Green, 20 mM Tris base pH 7.5, 5 mM EDTA, 0.008% w/v saponin, 0.08% w/v Triton X-100). […] Plates were incubated for 1 h at room temperature and then read on a fluorescence plate reader (Tecan, Austria) using excitation and emission wavelengths of 485 and 535 nm, respectively.

[2] = system: Plasmodium falciparum CQ-sensitive strain 3D7; assay: In vitro antiplasmodial activity, SYBR Green I fluorescence-based method, strain 3D7; assay type: cell-based; settings: CQ-sensitive strain 3D7, 48 h incubation, mean of three independent experiments, read-out: P. falciparum Strains IC50 Values 3D7
Procedure: as §1

[3] = system: Trypanosoma 9 and 11 chromosomic sequence FTrypBT (FEBR1T) G-quadruplex; assay: FRET melting assay, FtrypBT; assay type: binding, Trypanosoma brucei brucei; settings: compound 2 μM, oligonucleotide 0.2 μM, K+ conditions
Procedure: (§2) These were performed with dual-labeled oligonucleotides mimicking the Plasmodium telomeric sequences FPf1T [FAM-5′(GGGTTTA)3-GGG3′-TAMRA] and FPf8T [FAM-5′(GGGTTCA)3GGG3′-TAMRA], the Trypanosoma 9 and 11 chromosomic sequence FTrypBT (also named FEBR1T) [FAM-5′[…]3′-TAMRA], the human telomeric sequence F21T [FAM-(GGGTTA)3-GGG3′-TAMRA] and the human duplex sequence FdxT [FAM5′-[…]-hexaethyleneglycol-[…]3′-TAMRA] [27, 31, 47]. The oligonucleotides were pre-folded in 10 mM lithium cacodylate buffer (pH 7.2), with 10 mM KCl and 90 mM LiCl (K^+ condition). The FAM emissions were recorded at 516 nm using a 492-nm excitation wavelength in the absence and presence of a single compound as a function of temperature (25 to 95 °C) in 96-well microplates using a Stratagene MX3000P real-time PCR device at a rate of 1 °C∙min-1. Data were normalized between 0 and 1, and the required temperature for half-denaturation of oligonucleotides corresponding to the emission value of 0.5 was taken as the Tm. Each experiment was performed in duplicate with 0.2 µM of labeled oligonucleotide and 2 µM of compound under K^+ condition. For each compound, three independent experiments were carried out.

[4] = system: T. brucei brucei AnTat 1.9; assay: In vitro antitrypanosomal activity, Alamar Blue assay; assay type: cell-based, Trypanosoma brucei brucei; settings: Trypanosoma brucei, slender bloodstream trypomastigotes, AnTat 1.9 strain; mean +/- SD of three independent experiments; read-out: Trypanosoma brucei brucei IC50 Values Trypanos Antat 1.9
Procedure: The effects of the tested compounds on the growth of T. brucei brucei were assessed using an Alamar Blue® assay described by Räz et al. T. brucei brucei AnTat 1.9 ([…], Belgium) was cultured in MEM with Earle's salts, supplemented according to the protocol of Baltz et al. […] All doses were tested in duplicate. Appropriate controls treated with solvents 0.9% NaCl or DMSO or with suramin, pentamidine, eflornithine, and fexinidazole (reference drugs purchased from Sigma Aldrich and Fluorochem, UK) were added to each set of experiments. After 69 h incubation period at 37 °C, 10 μL of the viability marker Alamar Blue (Fisher) was added to each well, and the plates were incubated for 5 h. The plates were read in a PerkinElmer ENSPIRE (Germany) microplate reader using an excitation wavelength of 530 nm and an emission wavelength of 590 nm.

[5] = Cytotoxicity evaluation, MTT assay; assay type: cell-based, human; settings: human
Procedure: These cells are a commonly used human hepatocarcinoma-derived cell line that has characteristics similar to those of primary hepatocytes. These cells express many hepatocyte-specific metabolic enzymes, thus enabling the cytotoxicity of tested product metabolites to be evaluated. […] Duplicate assays were performed for each sample. Each well was microscopically examined for precipitate formation before the medium was aspirated from the wells. After aspiration, 100 µL of MTT solution (0.5 mg/mL in medium without FCS) were then added to each well. […] The MTT solution was removed, and DMSO (100 µL) was added to dissolve the resulting blue formazan crystals. Plates were shaken vigorously (300 rpm) for 5 min. The absorbance was measured at 570 nm with 630 nm as reference wavelength in a BIO-TEK ELx808 Absorbance Microplate Reader. DMSO was used as blank and doxorubicin (Sigma Aldrich) as positive control. Cell viability was calculated as percentage of control (cells incubated without compound). The CC50 was determined from the dose-response curve using TableCurve 2D V5.0 software (Systat Software, Palo Alto, CA, USA).

[6] = system: human telomeric sequence F21T G-quadruplex; assay: FRET melting assay, F21T; assay type: binding; settings: compound 2 μM, oligonucleotide 0.2 μM, K+ conditions
Procedure: as §2

[7] = system: L. donovani (MHOM/IN/00/DEVI) promastigotes; assay: In vitro antileishmanial activity on promastigotes, MTT assay; assay type: cell-based; settings: Leishmania donovani, 72 h incubation, mean +/- SD of three independent experiments
Procedure: L. donovani (MHOM/IN/00/DEVI) used in this study was provided by the CNR Leishmania (Montpellier, France). The effects of the tested compounds on the growth of L. donovani (MHOM/IN/00/DEVI) promastigotes were assessed by MTT assay. Briefly, promastigotes in log-phase in Schneider’s medium supplemented with 20% fetal calf serum (FCS), 2 mM L-glutamine and antibiotics (100 U/mL penicillin and 100 µg/mL streptomycin), were incubated at an average density of 10^6 parasites/mL in sterile 96-well plates with various concentrations of compounds previously dissolved in DMSO (final concentration less than 0.5% v/v), in duplicate. […] Duplicate assays were performed for each sample. After the 72 h incubation period at 27 °C, parasite metabolic activity was determined. Each well was microscopically examined for precipitate formation. To each well was added 10 µL of 10 mg/mL MTT [3-(4,5-dimethylthiazol-2-yl)-2,5-diphenyltetrazolium bromide)] solution followed by 4 h incubation time. The enzyme reaction was stopped by addition of 100 µL of 50% isopropanol/10% sodium dodecyl sulfate. Plates were vigorously shaken (300 rpm) for 10 min, and the absorbance was measured at 570 nm with 630 nm as reference wavelength in a BIOTEK ELx808 Absorbance Microplate Reader (Agilent Technologies, Les Ulis, France). […] IC50 of the parasite’s growth (half maximal inhibitory concentration or IC50 values) were then calculated from the obtained experimental results using a previously described regression program. IC50 values were calculated from three independent experiments.

[8] = system: Plasmodium telomeric sequence FPf1T G-quadruplex; assay: FRET melting assay, FPf1T; assay type: binding, Plasmodium falciparum; settings: compound 2 μM, oligonucleotide 0.2 μM, K+ conditions
Procedure: as §2

[9] = system: Plasmodium telomeric sequence FPf8T G-quadruplex; assay: FRET melting assay, FPf8T; assay type: binding, Plasmodium falciparum; settings: compound 2 μM, oligonucleotide 0.2 μM, K+ conditions
Procedure: as §2

[10] = system: human duplex sequence FdxT; assay: FRET melting assay, duplex control FdxT; assay type: binding; settings: compound 2 μM, oligonucleotide 0.2 μM, K+ conditions
Procedure: as §2

## CN(C)CCCNCc1cc(-c2ccccc2)c2ccc3c(-c4ccccc4)cc(CNCCCN(C)C)nc3c2n1 [Compound 1b, 2,9-Bis[(3-dimethylaminopropyl)aminomethyl]-4,7-diphenyl-1,10-phenanthroline]
[1]
  IC50: 6.13 ± 1.63 µM
[2]
  IC50: 21.2 ± 7.72 µM
[3]
  ΔTm FtrypBT: 8.7 °C
[4]
  IC50: 0.57 ± 0.07 µM
[5]
  CC50 at 72 h: 5.96 ± 0.2 µM
[6]
  ΔTm F21T: 12.8 °C
[7]
  IC50: > 12.5 µM
[8]
  ΔTm FPf1T: 7.4 °C
[9]
  ΔTm FPf8T: 7.9 °C
[10]
  ΔTm FdxT: −0.3 °C

## CN1CCN(CCNCc2cc(-c3ccccc3)c3ccc4c(-c5ccccc5)cc(CNCCN5CCN(C)CC5)nc4c3n2)CC1 [Compound 1e]
[1]
  IC50: 0.92 ± 0.18 µM
[2]
  IC50: 2.16 ± 0.32 µM
[3]
  ΔTm FtrypBT: 8.0 °C
[4]
  IC50: 0.45 ± 0.03 µM
[5]
  CC50 at 72 h: 10.5 ± 1.27 µM
[6]
  ΔTm F21T: 9.6 °C
[7]
  IC50: > 12.5 µM
[8]
  ΔTm FPf1T: 9.4 °C
[9]
  ΔTm FPf8T: 10.5 °C
[10]
  ΔTm FdxT: −1.6 °C

## CN1CCN(CCCNCc2cc(-c3ccccc3)c3ccc4c(-c5ccccc5)cc(CNCCCN5CCN(C)CC5)nc4c3n2)CC1 [Compound 1f]
[1]
  IC50: 11.3 ± 2.93 µM
[2]
  IC50: 21.5 ± 4.1 µM
[3]
  ΔTm FtrypBT: 9.1 °C
[4]
  IC50: 0.97 ± 0.11 µM
[5]
  CC50 at 72 h: 8.62 ± 0.5 µM
[6]
  ΔTm F21T: 10.8 °C
[7]
  IC50: > 12.5 µM
[8]
  ΔTm FPf1T: 8.8 °C
[9]
  ΔTm FPf8T: 10.9 °C
[10]
  ΔTm FdxT: −0.5 °C

## CN1CCN(CCCCNCc2cc(-c3ccccc3)c3ccc4c(-c5ccccc5)cc(CNCCCCN5CCN(C)CC5)nc4c3n2)CC1 [Compound 1g]
[1]
  IC50: 2.48 ± 0.49 µM
[2]
  IC50: 8.19 ± 3.53 µM
[3]
  ΔTm FtrypBT: 12.2 °C
[4]
  IC50: 0.96 ± 0.13 µM
[5]
  CC50 at 72 h: 16.8 ± 0.6 µM
[6]
  ΔTm F21T: 11.2 °C
[7]
  IC50: > 12.5 µM
[8]
  ΔTm FPf1T: 13.4 °C
[9]
  ΔTm FPf8T: 14.5 °C
[10]
  ΔTm FdxT: −0.5 °C

## c1ccc(-c2cc(CNCCN3CCOCC3)nc3c2ccc2c(-c4ccccc4)cc(CNCCN4CCOCC4)nc23)cc1 [Compound 1h]
[1]
  IC50: 0.17 ± 0.05 µM
[2]
  IC50: 0.67 ± 0.21 µM
[3]
  ΔTm FtrypBT: 2.2 °C
[4]
  IC50: 0.22 ± 0.06 µM
[5]
  CC50 at 72 h: 5.89 ± 0.53 µM
[6]
  ΔTm F21T: 2.0 °C
[7]
  IC50: 4.5 ± 2.2 µM
[8]
  ΔTm FPf1T: 1.8 °C
[9]
  ΔTm FPf8T: 1.9 °C
[10]
  ΔTm FdxT: −0.9 °C
